The numbers were not newly measured in patent publication US20260137644A1, “COMPOSITIONS INCLUDING CAFFEIC ACID PHENETHYL ESTER” (XMK THERAPEUTICS INC., priority 2022, published 2026), which cites them from elsewhere.

SMILES strings stand for the structures.

Series [1] has as its system carrageenin-induced inflammation.
The next series relates to NFAT. Particulars: Jurkat cells.

Take `O=C(/C=C/c1ccc(O)c(O)c1)OCCc1ccccc1` [CAPE, 2-phenylethyl (E)-3-(3,4-dihydroxyphenyl)prop-2-enoate]: the exudate volume result in series [1] is given as “suppresses”. The leukocytes relocation result in series [1] was “suppresses”. For the same molecule, the “interleukin-2 (IL-2) gene transcription and synthesis” value in the series on interleukin-2 (IL-2) is “inhibition”. Further, the “binding with DNA and transcriptional activity of NFAT” value in the series with NFAT is “inhibition”. The antimicrobial activity result in the series with Enterococcus faecalis, in the series with Listeria monocytogenes, in the series with Staphylococcus aureus and in the series with Haemophilus influenzae was “active” in each case.
